This is an account of results in US20200392107A1, “CYCLIC AMINE DERIVATIVE AND MEDICAL USE THEREOF” (Toray Industries, Inc., priority 2018, published 2020).

In assay [1] the test system is imiquimod-induced mouse psoriasis model. Description: Imiquimod-induced mouse psoriasis model. It counts as in vivo. The settings on record: 10 mg/kg orally once daily for 5 days (3 to 7 days after induction); BALB/c mice; vs vehicle, P<0.05. Here is the method: Using increase in the ear thickness as an index of exacerbation of symptoms, the effect of the cyclic amine derivative (I) or a pharmacologically acceptable salt thereof in an imiquimod-induced mouse psoriasis model was evaluated. The imiquimod-induced mouse psoriasis model was prepared by a partially modified method by Schaper et al. (The Journal of Dermatological Science, 2013, Vol. 71, No. 1, p. 29-36).
BALB/c mice (male, 7 weeks old) (Charles River Laboratories Japan, Inc.) were used at 8 to 9 weeks old after preliminary breeding. To induce psoriasis-like symptoms, 5 mg each of BESELNA CREAM 5% was applied once daily to the outside of the right and left auricles of the mice for 8 days from the day of first administration of imiquimod (hereinafter referred to as induction day) to 7 days after induction (dose of imiquimod, 0.5 mg/body/day).
A test compound at a dose of 10 mg/kg was administered to the mice once daily for 5 days from 3 days after induction to 7 days after induction. As the test compound, the compound of Example 1, the compound of Example 4, and the compound of Example 9 were used. The compound of Example 1, the compound of Example 4, and the compound of Example 9 were respectively suspended in a 0.5 w/v % methylcellulose solution and orally administered. The group in which the compound of Example 1 was administered to mice was defined as the Example-1 compound administration group, the group in which the compound of Example 4 was administered was defined as the Example-4 compound administration group, and the group in which the compound of Example 9 was administered was defined as the Example-9 compound administration group. In the vehicle administration group, a vehicle of each test compound (0.5 w/v % methylcellulose solution) was similarly administered.
The right and left ear thickness before administration of imiquimod (before induction) on the induction day and the right and left ear thickness on the 8th day after induction were measured with a digital micrometer (Mitutoyo Corporation). […]

The test system of assay [2] is IL-17 production in mouse splenocytes. The assay can be described thus: Suppressive effect on IL-17 production by IL-23 stimulation in mouse splenocytes. The assay is classed as cell-based. The settings on record: Splenocyte, 72 h, at 5 μmol/L of the test compound, human IL-23 10 ng/mL, cultured 3 days, read-out: IL-17 production inhibition rate (%). Here is the method: Using mouse splenocytes, the suppressive effect of the cyclic amine derivative (I) or a pharmacologically acceptable salt thereof on IL-17 production by IL-23 stimulation was evaluated by a partially modified method mentioned in The Journal of Biological Chemistry, 2003, Vol. 278, No. 3, p. 1910-1914.
A single cell suspension was prepared from the spleen of C57BL/6J mice (male or female, 6 to 30 weeks old) (Charles River Laboratories Japan, Inc. or CLEA Japan, Inc.) and splenocytes were prepared using Histopaque-1083 (Sigma-Aldrich Japan). The culture medium was used by adding 10% FBS (Gibco), 50 U/mL of penicillin-50 μg/mL of streptomycin (Gibco), 50 μmol/L of 2-mercaptoethanol (Gibco), and 100 U/mL of human IL-2 (Cell Science & Technology Institute, Inc.) to RPMI1640 medium (Gibco). A test compound was dissolved in DMSO and then diluted with the culture medium to have a final concentration of DMSO of 0.1% before use. Splenocytes (3×10^5 cells/well) prepared in the culture medium were seeded in wells of a 96-well flat-bottom plate (Corning Incorporated), the test compound and 10 ng/mL of human IL-23 (R & D systems, Inc.) were added thereto, and the cells were cultured at 37° C. under 5% CO2 for 3 days. A well without addition of human IL-23 and without addition of the test compound and a well with addition of human IL-23 and without addition of the test compound were prepared. After completion of the culture, the culture supernatant was collected and the IL-17 production amount in the supernatant was determined by ELISA method (R & D systems, Inc.).
The IL-17 production inhibition rate (%) was calculated from Formula (2).
IL-17 production inhibition rate (%)=(1−((IL-17 production amount with addition of IL-23 and with addition of the test compound)−(IL-17 production amount without addition of IL-23 and without addition of the test compound))/((IL-17 production amount with addition of IL-23 and without addition of the test compound)−(IL-17 production amount without addition of IL-23 and without addition of the test compound)))×100 (2).

The inhibition is the relative decrease from the control value, in per cent. In the case of `CC(=O)N1CCCC[C@@H]1C(=O)Nc1cc(Cl)c2c(c1)CCCN2Cc1ccc(C(F)(F)F)cc1` [Example 1, (R)-1-acetyl-N-(8-chloro-1-(4-(trifluoromethyl)benzyl)-1,2,3,4-tetrahydroquinolin-6-yl)piperidine-2-carboxamide], the “increase in the ear thickness (change in the ear thickness, 8th day after induction)” value in assay [1] is on record as “statistically significantly suppressed”. In addition, the inhibition at 5 µM in assay [2] stood at 98%.
In the same order, the values of `CC(=O)N1CCCC[C@@H]1C(=O)Nc1cc(Cl)c2c(c1)CCN2Cc1ccc(C(F)(F)F)cc1` [Example 4, (R)-1-acetyl-N-(7-chloro-1-(4-(trifluoromethyl)benzyl)indolin-5-yl)piperidine-2-carboxamide] are “statistically significantly suppressed” and 99.9%.
In the same order, the values of `CC(=O)N1CCCC[C@@H]1C(=O)Nc1cc(Cl)c2c(c1)CCN2C[C@H]1CC[C@H](C(F)(F)F)CC1` [Example 9, (R)-1-acetyl-N-(7-chloro-1-((trans-4-(trifluoromethyl)cyclo-hexyl)methyl)indolin-5-yl)piperidine-2-carboxamide] are “statistically significantly suppressed” and 99.5%.
